Experimental findings from PubChem BioAssay AID651799 (The Scripps Research Institute Molecular Screening Center, 2012) are described below.

Molecules are shown by their SMILES. Active and inactive are the calls of the source. No rule for the calls is given here.

For this assay, the target named is Nuclear receptor coactivator 2 (Homo sapiens) (UniProt Q15596). In words: SRC2 (NCOA2) coactivator inhibitors, late-stage follow-up, selectivity assay for SRC1 inhibitor project, cell-based, luciferase reporter, luminescence (AID 651799). (In general: A reporter such as luciferase makes a cellular process visible.)
Chain of Nuclear receptor coactivator 2 (Homo sapiens) (Q15596 whole entry, looked up): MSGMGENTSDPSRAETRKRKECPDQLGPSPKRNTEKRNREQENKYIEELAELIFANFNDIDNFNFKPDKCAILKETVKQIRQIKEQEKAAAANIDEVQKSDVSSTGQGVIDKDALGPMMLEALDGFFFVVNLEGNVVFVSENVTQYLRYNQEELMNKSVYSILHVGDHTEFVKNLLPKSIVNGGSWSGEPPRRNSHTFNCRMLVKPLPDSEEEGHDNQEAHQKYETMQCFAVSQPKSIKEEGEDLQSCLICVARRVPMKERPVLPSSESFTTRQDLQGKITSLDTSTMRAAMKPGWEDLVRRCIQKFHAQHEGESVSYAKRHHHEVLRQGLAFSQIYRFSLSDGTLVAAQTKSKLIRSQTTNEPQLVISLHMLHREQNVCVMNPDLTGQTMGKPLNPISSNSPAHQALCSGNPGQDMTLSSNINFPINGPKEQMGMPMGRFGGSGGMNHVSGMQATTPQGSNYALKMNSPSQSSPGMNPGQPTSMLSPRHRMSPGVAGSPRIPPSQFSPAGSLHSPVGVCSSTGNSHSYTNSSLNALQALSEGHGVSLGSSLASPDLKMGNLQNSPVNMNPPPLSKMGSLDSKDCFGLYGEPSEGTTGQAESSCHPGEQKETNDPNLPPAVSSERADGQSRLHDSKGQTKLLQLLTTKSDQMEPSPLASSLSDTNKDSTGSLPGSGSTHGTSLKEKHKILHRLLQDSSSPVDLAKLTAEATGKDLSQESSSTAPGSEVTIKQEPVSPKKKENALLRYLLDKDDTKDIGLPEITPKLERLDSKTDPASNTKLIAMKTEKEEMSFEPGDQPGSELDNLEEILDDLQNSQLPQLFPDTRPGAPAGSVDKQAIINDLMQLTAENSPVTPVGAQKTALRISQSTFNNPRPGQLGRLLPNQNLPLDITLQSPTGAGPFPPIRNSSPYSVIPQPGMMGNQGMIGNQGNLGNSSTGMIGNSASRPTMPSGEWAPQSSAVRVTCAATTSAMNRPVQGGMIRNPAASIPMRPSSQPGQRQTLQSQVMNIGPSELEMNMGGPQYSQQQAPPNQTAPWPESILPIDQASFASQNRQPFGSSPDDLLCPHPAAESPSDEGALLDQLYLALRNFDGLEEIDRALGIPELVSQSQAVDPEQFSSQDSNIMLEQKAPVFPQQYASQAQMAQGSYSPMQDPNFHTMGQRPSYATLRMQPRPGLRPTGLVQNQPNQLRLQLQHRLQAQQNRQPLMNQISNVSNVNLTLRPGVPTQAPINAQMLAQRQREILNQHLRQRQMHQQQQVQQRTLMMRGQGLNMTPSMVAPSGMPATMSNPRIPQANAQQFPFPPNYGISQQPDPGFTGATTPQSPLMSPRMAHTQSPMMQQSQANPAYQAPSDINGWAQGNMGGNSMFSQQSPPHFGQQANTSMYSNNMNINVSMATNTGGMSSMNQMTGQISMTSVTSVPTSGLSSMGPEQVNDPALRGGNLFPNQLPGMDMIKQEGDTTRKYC

`COc1ccc(NC(=O)CN(C)C(=O)C2(c3ccccc3)CCCC2)cc1`: the IC50 result was “inactive”.
For `COc1ccc(Nc2ncnc3ccc(Br)cc23)c(OC)c1`, the IC50 result was “inactive”.
